In patent US20230099344A1, “COMPOUNDS AND METHODS FOR THE TARGETED DEGRADATION OF IRAK-4” (Arvinas Operations, Inc., priority 2021, published 2023):

Key:
Format in all cases: cell-based
IL6 [1] = assay: IL-1β stimulated IL6 inhibition assay in PBMC; conditions: PBMC, human PBMCs, IL-1β stimulation, compound overnight, IL6 by MSD after 24 hrs; for IC50: Homo sapiens, 24 h, read-out: IL1β stim IL6 inhibition IC50; for Emax: read-out: IL1β stim IL6 inhibition Ymax
Outline: (§1)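 Read-out: MSD quantification of IL6 or IL8 in media collected 24 hrs after stimulation. Human PBMCs (2.0×10^6 cells/mL) received compound overnight before stimulant dosing at an EC50 concentration determined per donor.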

IL8 = assay: IL-1β stimulated IL8 inhibition assay in PBMC; conditions: human PBMCs, IL-1β stimulation, compound overnight, IL8 by MSD after 24 hrs; for IC50: read-out: IL1β stim IL8 inhibition IC50; for Emax: read-out: IL1β stim IL8 inhibition Ymax
Outline: as §1

IL6 [2] = assay: LPS stimulated IL6 inhibition assay in PBMC; conditions: Homo sapiens, PBMC, 24 h, human PBMCs, LPS stimulation, compound overnight, IL6 by MSD after 24 hrs
Outline: as §1

IL6 [3] = assay: R848 stimulated IL6 inhibition assay in PBMC; conditions: PBMC, human PBMCs, R848 stimulation, compound overnight, IL6 by MSD after 24 hrs
Outline: as §1

IRAK-4 [4] = target: T1, IRAK-4 (Homo sapiens, UniProt Q9NWZ3); assay: IRAK-4 ELISA, OCI-Ly10 degradation; parameters: endogenous in cells; conditions: treated overnight; for Dmax: OCI-Ly10, OCI-Ly10 cells; for DC50: OCI-Ly10 cells
T1 sequence (Q9NWZ3 1-460): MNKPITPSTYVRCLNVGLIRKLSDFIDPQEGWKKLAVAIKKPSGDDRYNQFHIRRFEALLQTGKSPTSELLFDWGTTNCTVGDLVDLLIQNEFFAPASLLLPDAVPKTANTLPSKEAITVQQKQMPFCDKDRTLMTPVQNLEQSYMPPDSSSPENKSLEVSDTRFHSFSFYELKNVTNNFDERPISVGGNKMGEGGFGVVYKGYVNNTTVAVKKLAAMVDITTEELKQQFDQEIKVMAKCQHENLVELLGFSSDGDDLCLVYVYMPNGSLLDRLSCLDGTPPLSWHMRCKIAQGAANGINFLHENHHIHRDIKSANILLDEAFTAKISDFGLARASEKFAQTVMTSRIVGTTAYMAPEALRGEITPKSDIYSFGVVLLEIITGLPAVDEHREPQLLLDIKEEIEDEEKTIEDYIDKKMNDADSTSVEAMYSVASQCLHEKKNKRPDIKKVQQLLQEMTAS
Outline: (§2)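 IRAK-4 levels measured by matched-antibody-pair ELISA on lysates after overnight compound exposure. Cells seeded same day: PBMC at 2×10^6/ml, OCI-Ly10 at 1×10^6/ml.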

IRAK-4 [5] = target: T1, IRAK-4; assay: IRAK-4 ELISA, PBMC degradation; parameters: endogenous in cells; host or cells: PBMC; conditions: treated overnight
Outline: as §2

IC50 (IL6 [1]) | IC50 (IL8) | IC50 (IL6 [2]; read-out: LPS stim IL6 inhibition IC50) | IC50 (IL6 [3]; read-out: R848 stim IL6 inhibition IC50) | Dmax (IRAK-4 [4]) | DC50 (IRAK-4 [4]) | DC50 (IRAK-4 [5]) | Dmax (IRAK-4 [5]) | PBMC DC90 (IRAK-4 [5]) | SMILES | Emax (IL6 [1]) | Emax (IL8) | Dmax (IL6 [2]; read-out: LPS Stim IL6 inhibition Dmax) | Dmax (IL6 [3]; Homo sapiens, 24 h, read-out: R848 stim IL6 inhibition Dmax)
< 0.01 µM | 0.01 to 0.05 µM | 0.01 to 0.05 µM | 0.01 to 0.05 µM | ≥ 90% | 0.01 to 0.05 µM | 0.001 to 0.005 µM | ≥ 90% | A (A represents a DC90 value <10.0 nM) | O=C1CCC(N2C(=O)c3ccc(N4CCC(CN5CCC(n6cc7cc(NC(=O)c8cnn9cccnc89)c(OCC8CC8)cc7n6)CC5)CC4)cc3C2=O)C(=O)N1 (stereo not drawn) [Example 165] | 80 to 90% | 70 to 80% | 70 to 80% | ≥ 90%
0.01 to 0.05 µM | 0.01 to 0.05 µM | – | – | ≥ 90% | < 0.01 µM | < 0.001 µM | ≥ 90% | A (A represents a DC90 value <10.0 nM) | COc1cc(N2CCC(CN3CCC(N4Cc5cc(NC(=O)c6cnn7cccnc67)c(OC(C)C)cc5C4=O)CC3)CC2)cc2c1C(=O)N(C1CCC(=O)NC1=O)C2=O (stereo not drawn) [Example 12] | 80 to 90% | < 70% | – | –
0.01 to 0.05 µM | 0.05 to 0.1 µM | – | – | ≥ 90% | < 0.01 µM | < 0.001 µM | ≥ 90% | A (A represents a DC90 value <10.0 nM) | COc1cc2nn([C@H]3CC[C@H](OC4CN(c5ccc6c(c5)C(=O)N(C5CCC(=O)NC5=O)C6=O)C4)CC3)cc2cc1NC(=O)c1cnn2cccnc12 (stereo partly drawn) [Example 212] | 80 to 90% | < 70% | – | –
0.01 to 0.05 µM | ≥ 0.1 µM | – | – | ≥ 90% | < 0.01 µM | < 0.001 µM | ≥ 90% | A (A represents a DC90 value <10.0 nM) | COc1cc2nn(C3CCN(CC4CN(c5ccc6c(c5)C(=O)N(C5CCC(=O)NC5=O)C6=O)C4)CC3)cc2cc1NC(=O)c1cnn2cccnc12 (stereo not drawn) [Example 202] | 80 to 90% | – | – | –
0.01 to 0.05 µM | 0.05 to 0.1 µM | – | – | ≥ 90% | < 0.01 µM | < 0.001 µM | ≥ 90% | A (A represents a DC90 value <10.0 nM) | O=C1CCC(NC(=O)c2ccc(N3CCC(CN4CCC(n5cc6cc(NC(=O)c7cnn8cccnc78)c(OCC7CC7)cc6n5)CC4)CC3)cc2F)C(=O)N1 (stereo not drawn) [Example 288] | ≥ 90% | 70 to 80% | – | –
< 0.01 µM | 0.01 to 0.05 µM | – | – | ≥ 90% | < 0.01 µM | 0.001 to 0.005 µM | 80 to 90% | A (A represents a DC90 value <10.0 nM) | Cc1cnc2c(C(=O)Nc3cc4c(cc3OC(C)C)C(=O)N(C3CCN(CCc5ccc6c(c5)CN(C5CCC(=O)NC5=O)C6=O)CC3)C4)cnn2c1 (stereo not drawn) [Example 9] | ≥ 90% | 70 to 80% | – | –
0.01 to 0.05 µM | ≥ 0.1 µM | – | – | 70 to 80% | < 0.01 µM | < 0.001 µM | ≥ 90% | A (A represents a DC90 value <10.0 nM) | O=C1CCC(N2Cc3cc(N4CC(F)(CN5CCC(n6cc7cc(NC(=O)c8cnn9cccnc89)c(OCC8CC8)cc7n6)CC5)C4)ccc3C2=O)C(=O)N1 (stereo not drawn) [Example 279] | ≥ 90% | 80 to 90% | – | –
0.01 to 0.05 µM | 0.01 to 0.05 µM | – | – | 80 to 90% | < 0.01 µM | < 0.001 µM | 80 to 90% | A (A represents a DC90 value <10.0 nM) | O=C1CCC(N2Cc3cc(N4CCC(F)(CN5CCC(n6cc7cc(NC(=O)c8cnn9cccnc89)c(OCC8CC8)cc7n6)CC5)CC4)ccc3C2=O)C(=O)N1 (stereo not drawn) [Example 278] | ≥ 90% | ≥ 90% | – | –
< 0.01 µM | 0.01 to 0.05 µM | – | – | ≥ 90% | < 0.01 µM | 0.001 to 0.005 µM | 80 to 90% | A (A represents a DC90 value <10.0 nM) | COc1c(N2CC(CN3CCC(n4cc5cc(NC(=O)c6cnn7cccnc67)c(OCC6CC6)cc5n4)CC3)C2)ccc2c1C(=O)N(C1CCC(=O)NC1=O)C2=O (stereo not drawn) [Example 285, N-(6-(cyclopropylmethoxy)-2-(1-((1-(2-(2,6-dioxopiperidin-3-yl)-4-methoxy-1,3-dioxoisoindolin-5-yl)azetidin-3-yl)methyl)piperidin-4-yl)-2H-indazol-5-yl)pyrazolo[1,5-a]pyrimidine-3-carboxamide] | 80 to 90% | < 70% | – | –
< 0.01 µM | 0.01 to 0.05 µM | – | – | 80 to 90% | < 0.01 µM | < 0.001 µM | ≥ 90% | A (A represents a DC90 value <10.0 nM) | O=C1CCC(N2Cc3cc(OCCOCCN4CCC(n5cc6cc(NC(=O)c7cnn8cccnc78)c(OCC7CC7)cc6n5)CC4)ccc3C2=O)C(=O)N1 (stereo not drawn) [Example 119] | ≥ 90% | 80 to 90% | – | –
< 0.01 µM | ≥ 0.1 µM | – | – | ≥ 90% | < 0.01 µM | 0.001 to 0.005 µM | ≥ 90% | A (A represents a DC90 value <10.0 nM) | O=C1CCC(N2C(=O)c3ccc(N4CCC(CN5CCC(N6Cc7cc(NC(=O)c8cnn9cccnc89)c(N8CCC(N9CCC9)CC8)cc7C6=O)CC5)CC4)cc3C2=O)C(=O)N1 (stereo not drawn) [Example 38] | ≥ 90% | ≥ 90% | – | –

SMILES | IC50 (IL6 [1]) | IC50 (IL8) | IC50 (IL6 [2]; read-out: LPS stim IL6 inhibition IC50) | IC50 (IL6 [3]; read-out: R848 stim IL6 inhibition IC50) | Dmax (IRAK-4 [4]) | DC50 (IRAK-4 [4]) | DC50 (IRAK-4 [5]) | Dmax (IRAK-4 [5]) | PBMC DC90 (IRAK-4 [5]) | Emax (IL6 [1]) | Emax (IL8) | Dmax (IL6 [2]; read-out: LPS Stim IL6 inhibition Dmax) | Dmax (IL6 [3]; Homo sapiens, 24 h, read-out: R848 stim IL6 inhibition Dmax)
O=C1CCC(N2Cc3cc(CCN4CCC(n5cc6cc(NC(=O)c7cnn8cccnc78)c(OCC7CC7)cc6n5)CC4)ccc3C2=O)C(=O)N1 (stereo not drawn) [Example 126] | < 0.01 µM | < 0.01 µM | – | – | ≥ 90% | < 0.01 µM | 0.001 to 0.005 µM | < 70% | B (B represents a DC90 value ≥10.0 nM and <25.0 nM) | ≥ 90% | < 70% | – | –
O=C1CCC(N2C(=O)c3ccc(N4CC(CN5CCC(N6Cc7cc(NC(=O)c8cnn9cccnc89)c(N8CCOCC8)cc7C6=O)CC5)C4)cc3C2=O)C(=O)N1 (stereo not drawn) [Example 96] | 0.05 to 0.1 µM | ≥ 0.1 µM | – | – | ≥ 90% | 0.01 to 0.05 µM | 0.001 to 0.005 µM | ≥ 90% | B (B represents a DC90 value ≥10.0 nM and <25.0 nM) | ≥ 90% | < 70% | – | –
CC(C)Oc1cc2c(cc1NC(=O)c1cnn3cccnc13)CN(C1CCN(C3CN(c4ccc5c(c4)C(=O)N(C4CCC(=O)NC4=O)C5=O)C3)CC1)C2=O (stereo not drawn) [Example 59] | 0.01 to 0.05 µM | 0.05 to 0.1 µM | – | – | ≥ 90% | < 0.01 µM | 0.001 to 0.005 µM | ≥ 90% | B (B represents a DC90 value ≥10.0 nM and <25.0 nM) | ≥ 90% | 70 to 80% | – | –
O=C1CCC(N2C(=O)c3ccc(N4CCC(CN5CC[C@H](n6cc7cc(NC(=O)c8cnn9cccnc89)c(OCC8CC8)cc7n6)[C@@H](F)C5)CC4)cc3C2=O)C(=O)N1 (stereo partly drawn) [Example 184] | 0.01 to 0.05 µM | 0.01 to 0.05 µM | – | – | < 70% | < 0.01 µM | 0.001 to 0.005 µM | 80 to 90% | C (C represents a DC90 value ≥25.0 nM and <50 nM) | 80 to 90% | < 70% | – | –
COc1cc2nn(C3CCN(CC4CCN(c5ccc6c(c5)CN(C5CCC(=O)NC5=O)C6=O)CC4)CC3)cc2cc1NC(=O)c1cnn2cccnc12 (stereo not drawn) [Example 141] | < 0.01 µM | 0.01 to 0.05 µM | – | – | 80 to 90% | < 0.01 µM | 0.001 to 0.005 µM | 80 to 90% | B (B represents a DC90 value ≥10.0 nM and <25.0 nM) | ≥ 90% | 80 to 90% | – | –
